Reference: patent publication US20030095982A1, “Fraction of Cordyceps sinensis and method of isolation thereof” (priority 2001, published 2003)

Columns and labels:
[1] = tested on: platelet aggregation induced by PAF; assay: PAF induced rabbit platelet aggregation in vitro; format: cell-based; conditions: 0.625 mM; washed rabbit platelets; PAF 2 nM; preincubated 2 min
Excerpt: In terms of inhibition, PAF induced rabbit platelete aggregation is used as an index of PAF function inhibition. It was used as the first step in vitro screening method for identifying potential substances which are capable of inhibiting PAF function and may improve bronchial hyperresponsiveness in vivo.
Washed platelets were obtained from rabbits. In brief, rabbit blood was collected from the marginal ear vein into tubes containing one-sixth volume of acid-citrate-dextrose as anticoagulant. The blood was centrifuged at 200×g for 15 min at room temperature. The platelet-rich plasma was mixed with 1/40 volume of EDTA (final concentration 5 mM) and re-centrifuged at 1000×g for 12 min. The supernatant was discarded and the platelet pellet was suspended in modified Ca^2+-free Tyrode's buffer (137 mM NaCl, 2.8 mM KCl, 2 mM MgCl2, 0.33 mM NaH2PO4, 5 mM glucose, 10 mM HEPES) with 0.35% bovine serum albumin, heparin (50 unit/ml) and apyrase (1 unit/ml). Following incubation at 37° C. for 20 min, the washed platelet pellet was resuspended in Tyrode's buffer containing 1 mM Ca^2+. The platelet number were counted by using a hemocytometer and adjusted to 3.5×10^8 platelets/ml. […] Aggregation was measured by a turbidimetric method. […] The inhibitory activities of F-4 and F-8 on platelet aggregation induced by PAF were calculated according the equation: [formula]

[2] = tested on: ovalbumin (OA) induced bronchial hyperresponsiveness; assay: Pulmonary function test, OA sensitized and challenged BALBc mice; format: in vivo
Description: In the nonanesthetized condition, 24 hours after airway challenge by 3 mL 1% OA aerosol, pulmonary function testing (PET) was measured by WBP at baseline and after methacholine (Mch) inhalation challenge. Four hours after PET in a nonanesthetized condition, all animals were anesthetized with sodium pentobarbitone (50 mg/kg intraperitoneally). Jugular vein cannulation (PE-10 polyethylene tube filled with heaprin, 1000 iu/mL in normal saline) and tracheostomy were performed. The animals were put in a body box (anesthetized small animal body box, Buxco, USA) in a supine position. Gallamine triethiodide (4 mg/kg) was injected intravenously to induce paralysis and inhibit spontaneous breathing. A small animal ventilator set at a tidal volume 6 mL/kg and a respiratory rate of 120 times/minute was used to ventilate the animals by room air. All animals were stable without spontaneous breathing 5 minutes after gallamine was given. Pulmonary function tests, including flow volume loop, peak airway opening pressure (PaO), and gas flow to calculate total dynamic lung compliance, were examined at baseline. Thereafter, 25, 50, 75 and 100 μg/kg of acetylcholine were given intravenously at 30 minute intervals. Pulmonary function test were done 5 seconds after each dose of acetylcholine. Before each dose of acetylcholine the flow volume loop returned to baseline.
The PaO was measured by a Gould pressure transducer at the tracheostomy. PaO was defined as opening airway pressure during tidal breathing when a small animal ventilator was used (tidal volume 6 mL/kg, respiratory rate 120 times/minute). Respiratory flow was measured by a DP-45-14 differential pressure transducer.
For the maximal forced expiratory maneuver (MFEM), the lungs were inflated to total lung capacity (TLC, lung volume at PaO =35 cm H2O) 3 times; the inflation was regulated by a solenoid valve. At peak volume during the third inflation, the inflation valve was shut off and the other solenoid valve was used immediately for deflation. The deflation valve was connected to a 20 liter container with a pressure of −40 cm H2O (subatmospheric). The negative pressure produced maximal expiratory flow (Vmax). The changes in flow, volume and PaO were recorded by a 7P1, 7P10 preamplifier (Grass instrument Company, USA) from the body box and flow volume was stored in an oscilloscope (Hitachi Den Shi America Ltd, New York, USA). The parameters of the flow volume loop (FV loop), including peak flow (the maximal flow rate of the FV loop), MFEF75% (the flow rate at 75% TLC), MFEF50% (the flow rate at 50% TLC) and MFEF25% (the flow rate at 25% TLC) were recorded.
PD20MFEF50%Ach is the dose of acetylcholine required to produce a decrease in MFEF50% of 20% from baseline. PD20MFEF25%Ach is the dose required to produce a decrease in MFEF25% of 20% from baseline. PD50PaOAch is the dose required to produce an increase in PaO of 50% from baseline. PD50CdynAch is the dose required to produce a decrease in Cdyn of 50% from baseline. PD50RawAch is the dose required to produce an increase in Raw of 50% from baseline after acetylcholine was given.
TLC and residual volume (RV) were defined as the gas volume in the lungs at airway pressures of +30 cm H2O (TLC) and −10 cm H2O (RV) respectively. The lungs were deflated to RV by connecting one port of the respiratory valve to a 4-liter reservoir at −10 cm H2O; the valve was then turned, and the lungs were inflated from a syringe to TLC. The volume necessary to inflate the lungs from −10 to 30 cm H2O was read from the syringe and was recorded as the vital capacity (VC). A specific measurement sequence was used throughout the study. VC was determined three times and then TLC was measured three times each. The average valve of the three measurements was reported.
Lung volumes (such as TLC and FRC) were also measured using the gas (Neon) dilution principle. […]

[3] = BALBc mice, baseline, 4 mg/Kg intraperitoneally 30 minutes before OA inhalation provocation, mean±SD

CC(C)[C@@H](C)C=C[C@@H](C)[C@H]1CC[C@H]2C3=C[C@@H](O)[C@@]4(O)C[C@@H](O)CC[C@]4(C)[C@H]3CC[C@]12C [F8, (24R)-ergosta-7,22-diene-3β, 5α, 6β,-triol]
Inhibitory Activity (%) [1]: 97±2.6% | percentage of baseline MFEF 50% TLC, Ach dose response ([2]; BALB/c mice, pretreated before OA inhalation provocation (group I) vs OA-treated (group II), Ach doses higher than 25 μg/kg): group II was significantly lower then group I | Cdyn (total dynamic lung compliance) [2, 3]: 0.42 ± 0.04 mL/cmH2O | FEV 0.1 [2, 3]: 1.26 ± 0.17 mL | MFEF 25% [2, 3]: 6.06 ± 1.59 mL/s | MFEF 50% [2, 3]: 14.58 ± 1.31 mL/s | MFEF 75% [2, 3]: 19.94 ± 2.53 mL/s | PaO (airway opening pressure at tidal breathing) [2, 3]: 3.8 ± 0.5 cmH2O | Peak flow [2, 3]: 22.64 ± 2.07 mL/s | TLC [2, 3]: 1.68 ± 0.25 mL | Vital capacity [2, 3]: 1.29 ± 0.11 mL | baseline flow volume loop parameters (MFEF 50%TLC, MFEF 25%TLC, Cdyn) versus group II ([2]; mice, treatment study (administered after OA challenge), p<0.05): lower in group II when compared with group I and III
